Data from ChEMBL document CHEMBL5532662, “Exploiting the Carboxylate-Binding Pocket of β-Lactamase Enzymes Using a Focused DNA-Encoded Chemical Library” (J Med Chem, 2024).

What was measured:
[1] = Binding affinity to his-tagged OXA-48 (unknown origin) expressed in Escherichia coli BL21 (DE3) cells assessed as inhibition constant using nitrocefin as substrate by Morrison equation based analysis; parameters: species or system Bacteria
Escherichia coli [2] = assay: Synergistic antimicrobial activity against Escherichia coli expressing […] assessed as imipenem MIC at 16 ug/ml incubated for 18 hrs by microdilution method (reference value: 8 ug/ml); format: functional; settings: dose 16 µg/ml
Escherichia coli [3] = assay: Synergistic antimicrobial activity against Escherichia coli expressing […] assessed as imipenem MIC at 32 ug/ml incubated for 18 hrs by microdilution method (reference value: 8 ug/ml); format: functional; settings: dose 32 µg/ml
Escherichia coli [4] = assay: Synergistic antimicrobial activity against Escherichia coli expressing […] assessed as imipenem MIC at 64 ug/ml incubated for 18 hrs by microdilution method (reference value: 8 ug/ml); format: functional; settings: dose 64 µg/ml
Escherichia coli [5] = assay: Synergistic antimicrobial activity against Escherichia coli expressing […] assessed as imipenem MIC at 128 ug/ml incubated for 18 hrs by microdilution method (reference value: 8 ug/ml); format: functional; settings: dose 128 µg/ml
[6] = Drug accumulation in Escherichia coli assessed per 10^12 CFU incubated for 10 mins under shaking condition by LC-MS/MS analysis; format: ADME
[7] = biological target: T1, Metallo-beta-lactamase type 2 (Bacteria, UniProt C7C422); assay: biochemical
T1 sequence (C7C422 whole entry): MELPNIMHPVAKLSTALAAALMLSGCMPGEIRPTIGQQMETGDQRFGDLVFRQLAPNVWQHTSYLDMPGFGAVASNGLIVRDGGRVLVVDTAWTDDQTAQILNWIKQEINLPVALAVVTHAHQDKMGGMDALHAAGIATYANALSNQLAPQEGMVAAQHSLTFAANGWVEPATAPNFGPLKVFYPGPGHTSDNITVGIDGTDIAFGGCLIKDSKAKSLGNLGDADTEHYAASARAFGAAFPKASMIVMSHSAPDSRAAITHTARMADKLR

Escherichia coli [8] = assay: Synergistic antimicrobial activity against Escherichia coli expressing […] assessed as imipenem MIC at 8 ug/ml incubated for 18 hrs by microdilution method (reference value: 8 ug/ml); format: functional; settings: dose 8 µg/ml
[9] = biological target: T1, Metallo-beta-lactamase type 2; assay: biochemical; remark: listed apart in the source

SMILES	Ki [1] [µM]	MIC (Escherichia coli [2]) [µg/mL]	MIC (Escherichia coli [3]) [µg/mL]	MIC (Escherichia coli [4]) [µg/mL]	MIC (Escherichia coli [5]) [µg/mL]	Drug uptake [6]	Ki [7] [µM]	MIC (Escherichia coli [8]) [µg/mL]	Ki [9] [µM]
CN(C)C(=O)C1CCN(c2ccc(CNCc3ccccc3-c3cccc(C(=O)O)c3)cc2C#N)CC1	8								
NCc1cccc(NCc2cccc(-c3ccc(C(=O)O)c(O)c3)n2)c1		4	4	4	2	Active			
Cc1cccc(NCc2cccc(-c3ccc(C(=O)O)c(O)c3)c2)c1							> 100		
NCc1cccc(NCc2ccnc(-c3ccc(C(=O)O)c(O)c3)c2)c1		8	8	4	4				
NCc1cc(O)cc(NCc2cccc(-c3ccc(C(=O)O)c(O)c3)c2)c1		4	4	4	4				
NCc1cccc(NCc2ccc(-c3ccc(C(=O)O)c(O)c3)o2)c1		4	4	4	4				
NCc1cccc(NCc2cccc(-c3ccc(C(=O)O)c(O)c3)c2)c1		4	4	4		Active	0.6	4	
NCc1cccc(N2Cc3ccc(-c4ccc(C(=O)O)c(O)c4)cc3C2)c1		8	8	8	8		50		
NCc1cccc(NCc2cc(-c3ccc(C(=O)O)c(O)c3)ccn2)c1		8	8	4	4				
CC(=O)NCc1cccc(NCc2cccc(-c3ccc(C(=O)O)c(O)c3)c2)c1							> 100		
Cc1cc(CNc2cccc(CN)c2)cc(-c2ccc(C(=O)O)c(O)c2)c1		4	4				0.5	4	
CNCc1cccc(NCc2ccc(-c3ccc(C(=O)O)cc3)o2)c1							9		
CNC(=O)CCc1ccc(CNCc2cccc(NCc3ccc(-c4ccc(C(=O)O)c(O)c4)o3)c2)cc1		8	8	8	8				
NCc1cccc(NCc2cc(C(=O)O)cc(-c3ccc(C(=O)O)c(O)c3)c2)c1							140		
NCc1cccc(NCc2ccc(-c3cccc(C(=O)O)c3O)o2)c1		8	4	4	4				
CNCc1cccc(NCc2ccc(-c3ccc(C(=O)O)c(O)c3)o2)c1		4	4	4	4	Not Active			
COc1cc(-c2cc(O)cc(C(=O)O)c2)ccc1C(=O)O	0.6								
NCc1cccc(NCc2cncc(-c3ccc(C(=O)O)c(O)c3)c2)c1		8	8	8	4				
CNCc1cccc(NCc2ccc(-c3cccc(C(=O)O)c3O)o2)c1		8	8	8	4				
NCc1cccc(NCc2ccc(-c3ccc(C(=O)O)c(O)c3)s2)c1		4	4	4	4		1.5		
NCc1cccc(NC(=O)c2cccc(-c3ccc(C(=O)O)c(O)c3)c2)c1		8	8	8	8		30		
Nc1cccc(CCCNCc2ccccc2-c2cccc(C(=O)O)c2)c1	130								
NCc1cccc(NCc2cc(O)cc(-c3ccc(C(=O)O)c(O)c3)c2)c1		4	4	4	4				
CNCc1cccc(NCc2cccc(-c3ccc(C(=O)O)c(O)c3)c2)c1		4	4	4	4				
CNCc1ccc(-c2ccc(C(=O)O)c(O)c2)o1									500
